From ChEMBL document CHEMBL3507680, “University of Dundee, Gates Library screen for HepG2 cell viability”

Assay: Human HepG2 cell viability assay in 384 well format
Assay type: toxicity, cell-based
Design: dose 125 nL, time 70.5 hour; concentration not given beside the values
Conditions: HepG2 cells, read-out: Inhibition

Compound	cytotoxicity at 70.5 h [%]
CC(C)c1noc(CN2CCN(CCO)CC2)n1	2.45
COCc1ccccc1CNCc1c(C(C)C)nn(C)c1N(C)C	-0.306
CCOCCN1CCN(Cc2nc(CC(C)C)no2)CC1	1.47
COc1cc(CNCCn2cc(C)cn2)cc2c1OCCO2	1.39
COc1ncccc1C(=O)N1CCCC(n2ccnc2)C1 (stereo not drawn)	-1.13
Cc1cc(C)n(CC2CN(Cc3cnc(C)s3)CCO2)n1 (stereo not drawn)	16.8
CCc1noc(CN2CCN(CCO)CC2)n1	-1.62
O=C(c1cccnc1N1CCCCC1)N1CCCC(n2ccnc2)C1 (stereo not drawn)	1.48
Cc1ccc(NC2CCN(C(=O)c3c(C)nn(C)c3Cl)CC2)nn1	-2.32
Cc1ccc(NC2CCN(C(=O)c3c(C)oc(C)c3C)CC2)nn1	-10.8
CCc1nc(CC(=O)N2CCn3c(CC)nnc3C2)cs1	-2.3
COCCNC(=O)Nc1ccc(-n2cncn2)c(C(F)(F)F)c1	-3.51
COc1ccc(C(CNC(=O)Nc2cc(C)nn2C)N(C)C)cc1 (stereo not drawn)	-5.49
CCCNC(=O)CCOc1cccc(F)c1	-3.12
Cn1cc(Cl)cc1C(=O)N1CCCN(Cc2ccccc2)CC1	-8.08
O=C(NCCCNc1ccc(C(F)(F)F)cn1)c1ccc2c(c1)OCO2	-9.51
CSCc1ccc(C(=O)NCCCNc2ccc(C(F)(F)F)cn2)cc1	-13.3
COCc1ccc(C(=O)NCCCNc2ccc(C(F)(F)F)cn2)cc1	-11.2
Cn1cc(C#N)c(=O)n(CC(O)c2ccccc2F)c1=O (stereo not drawn)	-13.2
Cc1cc(NC(=O)NCC(O)COc2ccccc2)n(C)n1 (stereo not drawn)	-11.6
N#Cc1cn(C2CC2)c(=O)n(CC(O)c2ccccc2C(F)(F)F)c1=O (stereo not drawn)	-15.2
Cn1cc(Cl)cc1C(=O)N1CCN(CCc2cccs2)CC1	-4.15
Cc1ccc(C(=O)N2CCCN(Cc3cccs3)CC2)n1C	-7.93
CC(C)(CNC(=O)COc1cccc(F)c1)C(N)=O	-9.07

Compound	cytotoxicity at 70.5 h [%]
Cc1cc(C)c(CNC(=O)N2CCN(c3ccncc3)CC2)c(=O)[nH]1	-9.77
c1coc(-c2noc(CN3CCc4cncnc4C3)n2)c1	-7.56
O=C(NCCCOCC1CC1)Nc1ccc(-n2cncn2)c(F)c1	-13.3
Cc1cnn(CC(=O)N2CCC(Nc3ccc(C)nn3)CC2)c1	12.8
Cc1ccsc1CNCC1CCCN1c1cccnn1 (stereo not drawn)	19.9
COc1cccc(COCC(=O)N2CCCCCC2)c1	17.5
CC(C)CCc1nc(CNCC2CCCN2c2cccnn2)cs1 (stereo not drawn)	12.1
Cc1csc(CNC(=O)Cc2ccc3c(c2)OCCO3)n1	-5.71
CCOc1ccc(CC(CNC(=O)c2ccc(C)s2)C(N)=O)cc1 (stereo not drawn)	4.65
CCc1nnc2n1CCN(CC(=O)Nc1cc(C)on1)C2	0.374
Cc1nc2ccccc2nc1CN1CCCC(Cn2cncn2)C1 (stereo not drawn)	-3.51
Cc1ccc(C(=O)Nc2cc(F)ccc2OCC2CCCO2)cn1 (stereo not drawn)	-3.09
Cc1nc2ccccc2nc1CN1CCCCC1Cn1cccn1 (stereo not drawn)	-12.7
CC(C)c1nccn1C1CCCN(C(=O)c2cccc3[nH]ncc23)C1 (stereo not drawn)	-8.02
Cc1cc(C)n(CC2CCCN2Cc2cscn2)n1 (stereo not drawn)	5.49
Cc1cnc(C(=O)Nc2cc(F)ccc2OCC2CCCO2)cn1 (stereo not drawn)	-6.23
Cc1nc(CN2CCCC(NCC(=O)Nc3cccnc3)C2)no1 (stereo not drawn)	-8.83
Cc1cc(NC(=O)CN2CCn3c(nnc3C3CC3)C2)no1	-5.22
Cc1nc2ccccc2nc1CN1CCCCC1Cn1cncn1 (stereo not drawn)	-8.21
CCc1nccn1C1CCCN(C(=O)c2ccc3[nH]nnc3c2)C1 (stereo not drawn)	-8.95
CC(C)c1nnc2n1CCN(C(=O)COc1ccc(C(N)=O)cc1)C2	-6.98
Cn1nc(C(=O)N2CCCC(n3cncn3)C2)ccc1=O (stereo not drawn)	-7.35
Cn1cc(C(=O)N2CCCC(n3cncn3)C2)ccc1=O (stereo not drawn)	-9.74
Cc1cc(NC(=O)CN2CCn3c(C)nnc3C2)no1	-7.43

Compound	cytotoxicity at 70.5 h [%]
Cc1cnc(CN2CCOC(CN(C)c3cccnn3)C2)cn1 (stereo not drawn)	-0.738
Cc1nc(CN(C)CC2CCCN2c2cccnn2)oc1C (stereo not drawn)	-1.57
Cc1nc(C)c(C(=O)N2CCCN(Cc3cnn(C)c3)CC2)s1	-3.11
CC(C)S(=O)(=O)C(C)C(=O)NCc1cccc(N2CCCCC2=O)c1 (stereo not drawn)	13.6
CNS(=O)(=O)c1cccc(CNC(=O)NCC2CCOC2)c1 (stereo not drawn)	-8.46
Cc1noc(C2CCN(C(=O)c3cc(Br)ccc3F)CC2)n1	-2.54
O=C(c1ccccn1)N1CCCN(Cc2nnc(C3CC3)o2)CC1	-9.21
CN(Cc1ccco1)C(=O)CN1CCCC1Cn1cccn1 (stereo not drawn)	-3.69
CN(Cc1ccco1)C(=O)CN1CCCCC1Cn1cncn1 (stereo not drawn)	-8.72
O=C(NCc1cccc(N2CCCCC2=O)c1)[C@@H](O)c1ccccc1	-7.54
COC(=O)N1CCCN(C(=O)c2cccc3cccnc23)CC1	-7.61
Cc1nnc(N2CCC(NS(C)(=O)=O)CC2)c(C#N)c1C	-5.64
Cc1cc(CN(C)C(=O)NC2CCN(S(C)(=O)=O)CC2)no1	-9.54
Cc1noc(C2CCCN(C(=O)c3ccc(F)cc3F)C2)n1 (stereo not drawn)	-8.76
CC(O)CN(CC(=O)NC1CCCCC1)c1ccccc1 (stereo not drawn)	8.65
Cc1ccc2cccc(C(=O)N3CCN(c4cccnn4)CC3)c2n1	-9.4
CCn1cnnc1C1CCN(C(=O)COc2ccccc2OC)CC1	6.54
CN(Cc1coc(-c2ccccc2)n1)CC1CCCN1c1cccnn1 (stereo not drawn)	4.57
CC(C(=O)Nc1ccnn1C(C)C)N1CCCN(c2nccs2)CC1 (stereo not drawn)	-3.68
CCc1nc(CN2CCCN(C(=O)C3CCC3)CC2)cs1	5.44
CCc1nc(CN2CCCN(C(=O)c3occc3C)CC2)cs1	-7.91
O=C(c1ccccn1)N1CCC(Nc2cccnn2)CC1	2.46
c1ccc(-c2nc(CNCCn3cccn3)cs2)cc1	-4.17
Cc1n[nH]c(=O)c2c(NC(=O)CN3CCC(C)CC3)oc(C)c12	-10.7

Compound	cytotoxicity at 70.5 h [%]
O=C(NCCn1nc2ccccn2c1=O)c1cc(-c2ccccc2)[nH]n1	-5.05
CCCc1cc(C(=O)NCCn2nc3ccccn3c2=O)[nH]n1	-9.65
CC(C)(C)c1cc(C(=O)NCCn2nc3ccccn3c2=O)[nH]n1	-4.69
Cc1occc1CN(C)Cc1nc2c(cnn2C)c(=O)[nH]1	-3.6
Cc1ccc(CN(C)Cc2nc3c(cnn3C)c(=O)[nH]2)o1	-2.01
CC1CN(CC(=O)N2CCCC2)CCN1c1ccc2nncn2n1 (stereo not drawn)	4.7
Cc1cc(NC(=O)C(C)N2CCN(c3nc(C)cs3)CC2)on1 (stereo not drawn)	-5.64
CCn1cnnc1C1CCCN(C(=O)COc2ccc(Cl)cc2)C1 (stereo not drawn)	-5.18
Cc1cn2nc(N3CCCC3Cn3cncn3)sc2n1 (stereo not drawn)	-3.48
Cc1cc(C(=O)N2CCC(Nc3cccnn3)CC2)no1	11.5
CN(Cc1cc(-c2ccccc2)no1)CC1CCCN1c1cccnn1 (stereo not drawn)	-8.09
CC(O)CN1CCN(C(=O)c2cccc3[nH]ncc23)CC1 (stereo not drawn)	-3.67
Cc1nnc(CN(C)CC2CCCN2c2cccnn2)o1 (stereo not drawn)	-3.53
CC(C)(C)c1cn2nc(N3CCCCC3Cn3cncn3)sc2n1 (stereo not drawn)	4.02
CCC(O)CN1CCN(C(=O)c2cccc3[nH]ncc23)CC1 (stereo not drawn)	-10.6
CSCCC(=O)NS(=O)(=O)c1ccc2c(c1)OCCO2	-7.91
O=C(CCc1ccc(F)cc1)NS(=O)(=O)c1ccc2c(c1)OCCCO2	4.05
O=C(CCSc1ccccc1)NS(=O)(=O)c1ccc2c(c1)OCCO2	-6.91
CC(c1nc(C2CC2)no1)N1CCN(Cc2cccnc2)CC1 (stereo not drawn)	-6.99
CC(C)n1nc2c(cc1=O)CN(Cc1nnc(C3CC3)o1)CC2	-3.62
CC(c1nc(C2CC2)no1)N1CCN(Cc2ccc(C#N)cc2)CC1 (stereo not drawn)	5.31
CCOc1cccc(NS(=O)(=O)c2cc(C(=O)O)cs2)c1	-11.8
CC1CCN(Cn2nc(-c3ccc(F)cc3)oc2=O)CC1	18.6
Cc1cccc(C(=O)NCc2ccc(S(N)(=O)=O)cc2)n1	-12.2

Compound	cytotoxicity at 70.5 h [%]
CC(NC(=O)NCCNc1ncccn1)c1cccs1 (stereo not drawn)	1.09
CC1CCCN(CCNC(=O)c2ccn(-c3ccccc3)n2)C1 (stereo not drawn)	-5.27
CC(C)c1cc(NC(=O)c2ccc(C(=O)NC(C)(C)C)cc2)[nH]n1	-4.05
Cn1ccc(CN2CCC(Oc3ccccc3)CC2)cc1=O	-12
c1cc2n(n1)CC(CNCc1ccc(OC3CCCCC3)nc1)CN2 (stereo not drawn)	0.985
Cc1noc(C(C)C)c1C(=O)NCc1cc(F)cc(F)c1	-4.07
O=C(Cc1ccc2c(c1)OCCO2)N1CCCC(n2cccn2)C1 (stereo not drawn)	-19.6
CC(C)c1nc(CC(=O)Nc2nc(CN3CCCCCC3)cs2)cs1	16.6
CCc1nc(C2CCCN2Cc2nccn2Cc2ccccc2)no1 (stereo not drawn)	-10.3
CC1CN(CC2CCCCC2)CCN1c1ccc2nncn2n1 (stereo not drawn)	41.2
Cc1cc(CN(C)C(=O)c2ccc(F)cc2Br)no1	-9.11
CC(C)(C)c1cn2nc(N3CCCC3Cn3cncn3)sc2n1 (stereo not drawn)	-10.8
Cc1[nH]ncc1C(=O)N1CCN(CC(O)C(C)(C)C)CC1 (stereo not drawn)	-14.9
Cn1nc2c(cc1=O)CN(Cc1nnc(-c3ccco3)o1)CC2	-3.38
Cn1nc2c(cc1=O)CN(Cc1nnc(C3CC3)o1)CC2	19.5
COc1cccc(-c2nc(CNCCn3cccn3)cs2)c1	-7.96
CC(c1nc(C2CC2)no1)N1CCN(Cc2ccsc2)CC1 (stereo not drawn)	-12.3
COc1ccc(CN2CCN(C(C)c3nc(C4CC4)no3)CC2)cc1 (stereo not drawn)	-6.65
CC1CCCCN1C(=O)CN1CCN(c2ccc3nncn3n2)CC1 (stereo not drawn)	-11.2
O=C(CCSc1ccc(F)cc1)NS(=O)(=O)c1ccc2c(c1)OCCO2	-6.96
Cc1ccc(CNC2CCCc3c2cnn3Cc2ccccc2)s1 (stereo not drawn)	-8.41
Cn1ncc2c1CCCC2NCc1ccc(Br)s1 (stereo not drawn)	3.28
